According to US6649656B1, “Anthranilic acid derivatives” (Teijin Limited, priority 1998, dated 2003):
Like-named read-outs stand apart in the source and are kept apart here.

What was measured:
Format in all cases: cell-based
L929 cells = test: Measurement of cytotoxicity using mouse tumor cell L929 (neutral red assay)
Method: [Procedure] The cytotoxicity action on tumor cell was measured by neutral red assay (the method described in the Journal of Tissue Culture Methodology vol.9, p.7 (1984) and Toxicology Letters, vol.24, p.119 (1985)). Concretely, L929 cells (5×10^4 cells/ml, 10% FCS/RPMI) were added to the wells of a 96 well ELISA plate at a rate of 100 μL each and cultured for a night, and the testing compounds of respective measurement concentrations were dissolved in DMSO solution and added to the above cells. The culture was continued for 3 days, and 2.0 μL of Neutral Red was added to attain the final concentration of 0.01%. The mixture was incubated for 1 hour at 37° C., the supernatant of the cell culture product was removed and the residue was washed twice with 200 μL of PBS to remove excess Neutral Red. Thereafter, the dye taken into the cell was extracted by adding 100 μL of 50% ethanol-1% acetic acid aqueous solution and the amount of the dye was determined by measuring the absorbance at 490 nm. The cytotoxicity was determined at each concentration of the test compound taking the cytotoxicity free from the drug as 100%. […] Two sets of measurement were performed for each test under the same condition and the average value was used as the test result.

[1] = tested on: IgE antibody production from human lymphocyte; test: Human in vitro IgE antibody production suppressing activity (lymphocyte culture with IL-4 + IL-10 + anti-CD40 antibody, sandwich ELISA); details: for IC50: IgE antibody production; for inhibition at 1 µM: test drug concentration 1 μM, IL-4 + IL-10 + anti-CD40 antibody, read-out: IgE production suppressing ratio (%)
Method: (§1) The concentrations of IgE and IgG antibodies were measured by the following method according to the method described in the Journal of Immunology vol.146, pp.1836-1842, 1991 and the Journal of Immunology vol. 147, pp.8-13, 1991.
(§2) Concretely, lymphocyte was separated from the peripheral venous blood of healthy person by density gradient centrifugation. The obtained lymphocyte was washed, suspended in a culture liquid (RPMI-1640 (product of Gibco Co.)+10% heat-inactivated FCS (product of Whittaker Co.)+100 μg/ml streptomycin+100 U/ml penicillin G+2 mM L-glutamine) and cultured for a week in the presence of interleukin 4 (IL-4, product of GENZYME Co.) (0.1 μg/ml), anti-CD40 antibody (antiCD40Aab, product of BIOSOURCE Co.), clone B-B20) (2 μg/ml) and interleukin 10 (IL-10, product of GENZYME Co.) (0.2 μg/ml) in the presence or absence of the compounds of the present invention described in the Tables 10 to 15 at various concentrations as test drugs.
(§3) The culture liquid was added to the culture system, the culture was continued for additional one week, and the concentrations of IgE and IgG antibodies in the supernatant were measured by sandwich ELISA method.
(§4) The measurement by ELISA method was carried out according to the known ELISA method by using rabbit anti-human IgE(ε) antibody (product of ICN Co.) as the primary antibody and biotin.anti-human IgE monoclonal antibody (G7-26, product of PharMingen Co.) as the secondary antibody for the measurement of IgE antibody concentration and anti-human IgG monoclonal antibody (G18-145, product of PharMingen Co.) as the primary antibody and biotin-donkey anti-human IgG antibody (H+L) (product of Jackson Co.) as the secondary antibody for the measurement of IgG antibody concentration, and using avidin-biotin-hourse radish peroxidase (ABC kit, product of Vector Lab.) as the enzyme and TMB (3,3′,5,5′-tetramethylbenzidine) microwell peroxidase substrate system (product of Kirkegaard & Perry Laboratories Inc.) as the substrate.
(§5) The value of IC50 and the suppressing ratio (%) at the test drug concentration of 1 μM were calculated based on the concentration attained in the absence of the compound of the present invention (reference: Ueshimna, et al. American Academy of Allergy & Immunology, 1995 Annual Meeting, Program No.818).

[2] = tested on: IgG antibody production from human lymphocyte; test: Human in vitro IgG antibody production (same lymphocyte culture, sandwich ELISA); details: for inhibition at 1 µM: Homo sapiens, Lymphocyte, test drug concentration 1 μM, IL-4 + IL-10 + anti-CD40 antibody, read-out: IgG production suppressing ratio (%); for IC50: IgG antibody production
Method: as §1, §2, §3, §4, §5

[3] = 72 h, cytotoxic activity against L929, neutral red assay, 3 days culture, read-out: LD50 (the source's name)
[4] = L929, 72 h, read-out: LD50 (μM)

Row | Compound | CC50 (L929 cells; [3]) [µM] | CC50 (L929 cells; [4]) [µM] | IC50 [1] [µM] | inhibition at 1 µM [1] [%] | inhibition at 1 µM [2] [%] | IC50 [2] [µM]
1 | O=C(CCCOc1ccc2cc(Oc3ccc(CC(=O)Nc4ccccc4C(=O)O)cc3)ccc2c1)Nc1ccccc1C(=O)O [compound 4] | 0.375 | – | – | – | – | –
2 | O=C(Cc1ccc(Oc2ccc3cc(OCC(=O)c4ccccc4)ccc3c2)cc1)Nc1ccccc1C(=O)O [compound 6] | – | 2.4 | – | – | – | –
3 | O=C(Cc1ccc(Oc2ccc(OCc3ccncc3)cc2)cc1)Nc1ccccc1C(=O)O [compound 37] | – | 1.02 | – | – | – | –
4 | O=C(Cc1ccc(Oc2ccc(OC3CCOCC3)cc2)cc1)Nc1ccccc1C(=O)O [compound 44] | – | 1.16 | 0.221 | 100 | 88.5 | 0.404
5 | CC(=O)Nc1ccc(CCOc2ccc(Oc3ccc(CC(=O)Nc4ccccc4C(=O)O)cc3)cc2)cc1 [compound 45] | 0.22 | – | 0.305 | 99.4 | -179 | 0.631
6 | CN(C)CCOc1ccc(Oc2ccc(CC(=O)Nc3ccccc3C(=O)O)cc2)cc1 [compound 47] | 0.2 | – | – | – | – | –
7 | COC(=O)N1CCC[C@H]1COc1ccc(Oc2ccc(CC(=O)Nc3ccccc3C(=O)O)cc2)cc1 [compound 59] | – | 2.4 | – | – | – | –
8 | CC(=O)NC1(COc2ccc(Oc3ccc(CC(=O)Nc4ccccc4C(=O)O)cc3)cc2)CCCC1 [compound 73] | – | > 5 | – | – | – | –
9 | O=C(Cc1ccc(Oc2ccc(OCC3(NC(=O)c4ccccc4)CCCC3)cc2)cc1)Nc1ccccc1C(=O)O [compound 74] | – | > 5 | – | – | – | –
10 | COC(=O)N1CCC(Oc2ccc(Oc3ccc(CC(=O)Nc4ccccc4C(=O)O)cc3)cc2)CC1 [compound 79] | – | 0.98 | 0.04 | 100 | 92.4 | 0.489
11 | O=C(Nc1ccccc1C(=O)O)c1ccc(Oc2ccc(OCCN3CCCCC3)cc2)cc1 [compound 93] | – | – | 0.738 | 56.2 | – | > 10
12 | O=C(Cc1ccc(Oc2ccc(OC3CCC(NC(=O)c4ccc(Cl)c(Cl)c4)CC3)cc2)cc1)Nc1ccccc1C(=O)O (stereo not drawn) [compound 100] | 0.95 | – | 0.028 | 100 | 100 | 0.244
